In US20250059159A1, “PLPRO INHIBITORS” (SHANGHAI SYNERGY PHARMACEUTICAL SCIENCES CO., LTD., priority 2021, published 2025):

Experiments:
SARS-CoV-2 PLpro = SARS-CoV-2 PLpro (Severe acute respiratory syndrome coronavirus 2 (2019-nCoV) (SARS-CoV-2), UniProt P0DTD1); assay: PLpro enzymatic inhibition assay (IC50 value determination); format: biochemical; details: 60 min preincubation for covalent inhibitors, 10 min for non-covalent, read-out: Inhibition of SARS-CoV-2 PLpro IC50 range
SARS-CoV2 (Omicron) = assay: SARS-CoV2 antiviral cellular activity assay in A549:hACE2 cells; format: cell-based; details: Severe acute respiratory syndrome coronavirus 2, 48 h; read-out: Antiviral cellular EC50 range (Omicron)

Structure (SMILES)	IC50 (SARS-CoV-2 PLpro) [nM]	EC50 (SARS-CoV2 (Omicron)) [nM]
COC(=O)/C=C/CNC(=O)CNC(=O)CN(C1CCN([C@H](C)c2cccc3ccccc23)CC1)S(C)(=O)=O [Compound 20, methyl (R,E)-4-(2-(2-(N-(1-(1-(naphthalen-1-yl)ethyl)piperidin-4-yl)methylsulfonamido)acetamido)acetamido)but-2-enoate]	< 100	< 100
C#CCNC(=O)CNC(=O)CN(C1CCN([C@H](C)c2cccc3ccccc23)CC1)S(C)(=O)=O [Compound 21, (R)-2-(N-(1-(1-(naphthalen-1-yl)ethyl)piperidin-4-yl)methylsulfonamido)-N-(2-oxo-2-(prop-2-yn-1-ylamino)ethyl)acetamide]	< 100	< 100
C#CCNC(=O)CNC(=O)CN(C1CCN([C@H](C)c2cccc3ccccc23)CC1)S(=O)(=O)c1ccccc1 [Compound 63, (R)-2-(N-(1-(1-(naphthalen-1-yl)ethyl)piperidin-4-yl)phenylsulfonamido)-N-(2-oxo-2-(prop-2-yn-1-ylamino)ethyl)acetamide]	< 100	< 100
C#CCNC(=O)CNC(=O)CN(C1CCN([C@H](C)c2cccc3ccccc23)CC1)S(=O)(=O)C(F)(F)F [Compound 80, (R)—N-(2-oxo-2-(prop-2-yn-1-ylamino)ethyl)-2-((1,1,1-trifluoro-N-(1-(1-(naphthalen-1-yl)ethyl)piperidin-4-yl)methyl)sulfonamido)acetamide]	< 100	100 to 1000
C#CCNC(=O)CNC(=O)CN(C1CCN([C@H](C)c2cccc3ccccc23)CC1)S(=O)(=O)N1CCCC1 [Compound 65, (R)-2-(N-(1-(1-(naphthalen-1-yl)ethyl)piperidin-4-yl)pyrrolidine-1-sulfonamido)-N-(2-oxo-2-(prop-2-yn-1-ylamino)ethyl)acetamide]	< 100	< 100
C#CCNC(=O)CNC(=O)CN(CCC(C)=O)C1CCN([C@H](C)c2cccc3ccccc23)CC1 [Compound 79, (R)-2-((1-(1-(naphthalen-1-yl)ethyl)piperidin-4-yl)(3-oxobutyl)amino)-N-(2-oxo-2-(prop-2-yn-1-ylamino)ethyl)acetamide]	< 100	100 to 1000
C#CCNC(=O)CNC(=O)CN(C1CCN([C@H](C)c2cccc3ccccc23)CC1)S(=O)(=O)C1CC1 [Compound 60, (R)-2-(N-(1-(1-(naphthalen-1-yl)ethyl)piperidin-4-yl)cyclopropanesulfonamido)-N-(2-oxo-2-(prop-2-yn-1-ylamino)ethyl)acetamide]	< 100	< 100
COC(=O)/C(C#N)=C/CNC(=O)CNC(=O)CN(C1CCN(C(C)c2cccc3ccccc23)CC1)S(C)(=O)=O (centres unmarked) [Compound 162, methyl (E)-2-cyano-4-(2-(2-(N-(1-(1-(naphthalen-1-yl)ethyl)piperidin-4-yl)methylsulfonamido)acetamido)acetamido)but-2-enoate]	100 to 1000	–
C#CCNC(=O)CNC(=O)CN(C1CCN([C@@H](C)c2cccc3ccccc23)CC1)S(=O)(=O)C1CC1 [Compound 90, (S)-2-(N-(1-(1-(naphthalen-1-yl)ethyl)piperidin-4-yl)cyclopropanesulfonamido)-N-(2-oxo-2-(prop-2-yn-1-ylamino)ethyl)acetamide]	< 100	–
C#CCNC(=O)CNC(=O)CN(C1CCN(C(C)c2cccc(-c3ccccc3)c2)CC1)S(C)(=O)=O (centres unmarked) [Compound 112, 2-(N-(1-(1-([1,1′-biphenyl]-3-yl)ethyl)piperidin-4-yl)methylsulfonamido)-N-(2-oxo-2-(prop-2-yn-1-ylamino)ethyl)acetamide]	100 to 1000	–
C#CCNC(=O)CNC(=O)CN(C1CCN(C(C)c2cccc(OC)c2Cl)CC1)S(C)(=O)=O (centres unmarked) [Compound 123, 2-(N-(1-(1-(2-chloro-3-methoxyphenyl)ethyl)piperidin-4-yl)methylsulfonamido)-N-(2-oxo-2-(prop-2-yn-1-ylamino)ethyl)acetamide]	100 to 1000	–
C#CCNC(=O)CNC(=O)CN(C1CCN(C(C)c2ccccc2-c2ccccc2)CC1)S(C)(=O)=O (centres unmarked) [Compound 113, 2-(N-(1-(1-([1,1′-biphenyl]-2-yl)ethyl)piperidin-4-yl)methylsulfonamido)-N-(2-oxo-2-(prop-2-yn-1-ylamino)ethyl)acetamide]	100 to 1000	–
C#CCNC(=O)CNC(=O)CN(C1CCN(C(C)c2cccc3ccccc23)CC1)S(=O)(=O)N1CCN(CC(=O)OCC)CC1 (centres unmarked) [Compound 115, ethyl 2-(4-(N-(1-(1-(naphthalen-1-yl)ethyl)piperidin-4-yl)-N-(2-oxo-2-((2-oxo-2-(prop-2-yn-1-ylamino)ethyl)amino)ethyl)sulfamoyl)piperazin-1-yl)acetate]	< 100	–
C#CCNC(=O)CNC(=O)CN(C1CCN([C@H](C)c2cccc3ccccc23)CC1)S(=O)(=O)CCCO [Compound 135, (R)-2-((3-hydroxy-N-(1-(1-(naphthalen-1-yl)ethyl)piperidin-4-yl)propyl)sulfonamido)-N-(2-oxo-2-(prop-2-yn-1-ylamino)ethyl)acetamide]	< 100	–
C#CCNC(=O)CNC(=O)CN(C(=O)CCC(=O)O)C1CCN(C(C)c2cccc3ccccc23)CC1 (centres unmarked) [Compound 118, 4-((1-(1-(naphthalen-1-yl)ethyl)piperidin-4-yl)(2-oxo-2-((2-oxo-2-(prop-2-yn-1-ylamino)ethyl)amino)ethyl)amino)-4-oxobutanoic acid]	1000 to 10000	–
C#CCNC(=O)CNC(=O)CN(C1CCN(C(C)c2ccccc2OC)CC1)S(C)(=O)=O (centres unmarked) [Compound 130, 2-(N-(1-(1-(2-methoxyphenyl)ethyl)piperidin-4-yl)methylsulfonamido)-N-(2-oxo-2-(prop-2-yn-1-ylamino)ethyl)acetamide]	< 100	–
C#CCNC(=O)CNC(=O)CN(C1CCN(C(C)c2ccc(Cl)cc2Cl)CC1)S(C)(=O)=O (centres unmarked) [Compound 120, 2-(N-(1-(1-(2,4-dichlorophenyl)ethyl)piperidin-4-yl)methylsulfonamido)-N-(2-oxo-2-(prop-2-yn-1-ylamino)ethyl)acetamide]	100 to 1000	–
COC(=O)/C=C/CNC(=O)CNC(=O)[C@H](CNC(=O)OC(C)(C)C)NC1CCN([C@H](C)c2cccc3ccccc23)CC1 [Compound 27, methyl (S,E)-2,2-dimethyl-7-((1-((R)-1-(naphthalen-1-yl)ethyl)piperidin-4-yl)amino)-4,8,11-trioxo-3-oxa-5,9,12-triazahexadec-14-en-16-oate]	1000 to 10000	–
COC(=O)/C=C/CNC(=O)CNC(=O)CN(C(=O)C(F)(F)F)C1CCN([C@H](C)c2cccc3ccccc23)CC1 [Compound 14, methyl (R,E)-4-(2-(2-(2,2,2-trifluoro-N-(1-(1-(naphthalen-1-yl)ethyl)piperidin-4-yl)acetamido)acetamido)acetamido)but-2-enoate]	100 to 1000	–
C#CCNC(=O)CNC(=O)CN(C1CCN(C(C)c2ccc(F)c3ccccc23)CC1)S(C)(=O)=O (centres unmarked) [Compound 107]	< 100	100 to 1000
C#CCCNC(=O)CNC(=O)CN(C1CCN(C(C)c2cccc3ccccc23)CC1)S(C)(=O)=O (centres unmarked) [Compound 157, N-(but-3-yn-1-yl)-2-(2-(N-(1-(1-(naphthalen-1-yl)ethyl)piperidin-4-yl)methylsulfonamido)acetamido)acetamide]	100 to 1000	–
